In patent US20070128217A1 (priority 2003, published 2007):

What was measured:
[1] = system: rabbit serum obtained by immunizing a rabbit with the SARS-CoV strain Frankfurt 1; assay type: binding; design: Binding of a rabbit serum to linear peptides / Binding of a rabbit serum to looped peptides / Rabbit serum linear peptides / Rabbit serum looped peptides / Binding of a rabbit serum to linear peptides of protein N of SARS-CoV Urbani (Rabbit serum linear peptides) / Binding of a rabbit serum to looped/cyclic peptides of protein N of SARS-CoV Urbani (Rabbit serum looped peptides): unit not given here
[2] = system: control sera (pooled serum of ten healthy LUMC hospital workers; commercial negative donor pooled serum from the Dutch bloodbank); assay type: binding, human; design: Binding of Control serum LUMC to linear peptides / Binding of Control serum Blood-bank to linear peptides / Binding of Control serum LUMC to looped peptides / Binding of Control Serum Blood-Bank to Looped peptides / Binding of Control serum LUMC to linear peptides of the protein M of SARS-CoV Urbani / Binding of Control serum Blood-bank to linear peptides of the protein M of SARS-CoV Urbani / Binding of Control serum LUMC to looped peptides of the protein M of SARS-CoV Urbani / Binding of Control Serum Blood-Bank to Looped peptides of the protein M of SARS-CoV Urbani: unit not given here
[3] = system: antibodies in sera from SARS patients (sera 1a, 1b, 2, 6, 37, 62, London, SARS-yellow, SARS-green); assay type: binding, human; design: Binding of serum 6 to linear peptides of protein X1 of SARS-CoV Urbani / Binding of serum 37 to linear peptides of protein X1 of SARS-CoV Urbani / Binding of serum 6 to looped/cyclic peptide (PEPSCAN-ELISA) / Binding of serum 37 to looped/cyclic peptide (PEPSCAN-ELISA) / Binding of serum 37 to looped/cyclic peptides of protein X1 of SARS-CoV Urbani / Binding of serum 6 to linear peptides of protein X2 / Binding of serum 37 to linear peptides of protein X2 / Binding of serum 37 to looped/cyclic peptides of protein X2 of SARS-CoV Urbani / Binding of serum 6 to linear peptides of protein M of SARS-CoV Urbani / Binding of serum 37 to linear peptides of protein M of SARS-CoV Urbani / Binding of serum 6 to looped/cyclic peptides of protein M of SARS-CoV Urbani / Binding of serum 37 to looped/cyclic peptides of protein M of SARS-CoV Urbani / Binding of serum 6 to linear peptides of protein X3 of SARS-CoV Urbani / Binding of serum 37 to linear peptides of protein X3 of SARS-CoV Urbani / Binding of serum 37 to looped/cyclic peptides of protein X3 of SARS-CoV Urbani / Binding of serum 6 to linear peptides of protein X4 of SARS-CoV Urbani / Binding of serum 37 to linear peptides of protein X4 of SARS-CoV Urbani / Binding of serum 37 to looped/cyclic peptides of protein X4 of SARS-CoV Urbani / Binding of serum 6 to linear peptides of protein X5 of SARS-CoV Urbani / Binding of serum 37 to linear peptides of protein X5 of SARS-CoV Urbani / Binding of serum 37 to looped/cyclic peptides of protein X5 of SARS-CoV Urbani / Binding of serum 6 to linear peptides of protein N of SARS-CoV Urbani / Binding of serum 37 to linear peptides of protein N of SARS-CoV Urbani / Binding of serum 6 to linear peptide (PEPSCAN-ELISA) / Binding of serum 1a to looped/cyclic peptides of protein N of SARS-CoV Urbani / Binding of serum 1b to looped/cyclic peptides of protein N of SARS-CoV Urbani / Binding of serum 2 to looped/cyclic peptides of protein N of SARS-CoV Urbani / Binding of serum 6 to looped/cyclic peptides of protein N of SARS-CoV Urbani / Binding of serum 37 to looped/cyclic peptides of protein N of SARS-CoV Urbani / Binding of serum 62 to looped/cyclic peptides of protein N of SARS-CoV Urbani / Binding of serum London to looped/cyclic peptides of protein N of SARS-CoV Urbani / Binding of serum SARS-green to looped/cyclic peptides of protein N of SARS-CoV Urbani: unit not given here

| Sequence | Binding of a rabbit serum to linear peptides [1] | Binding of a rabbit serum to looped peptides [1] | Recognition of the peptide by the rabbit serum [1] | Binding of serum 1a to linear peptides of protein X1 of SARS-CoV Urbani [3] | Binding of serum 1a to looped/cyclic peptide (PEPSCAN-ELISA) [3] | Binding of serum 1b to linear peptides of protein X1 of SARS-CoV Urbani [3] | Binding of serum 1b to looped/cyclic peptide (PEPSCAN-ELISA) [3] | Binding of serum 2 to linear peptides of protein X1 of SARS-CoV Urbani [3] | Binding of serum 2 to looped/cyclic peptide (PEPSCAN-ELISA) [3] | Binding of serum 6 to linear peptides of protein X1 of SARS-CoV Urbani [3] | Binding of serum 6 to looped/cyclic peptide (PEPSCAN-ELISA) [3] | Binding of serum 37 to linear peptides of protein X1 of SARS-CoV Urbani [3] | Binding of serum 37 to looped/cyclic peptide (PEPSCAN-ELISA) [3] | Binding of serum 62 to linear peptides of protein X1 of SARS-CoV Urbani [3] | Binding of serum 62 to looped/cyclic peptide (PEPSCAN-ELISA) [3] | Binding of serum London to linear peptides of protein X1 of SARS-CoV Urbani [3] | Binding of serum London to looped/cyclic peptide (PEPSCAN-ELISA) [3] | Binding of serum SARS-green to linear peptides of protein X1 of SARS-CoV Urbani [3] | Binding of serum SARS-green to looped/cyclic peptide (PEPSCAN-ELISA) [3] | Binding of serum SARS-yellow to linear peptides of protein X1 of SARS-CoV Urbani [3] | also measured |
| --- | --- | --- | --- | --- | --- | --- | --- | --- | --- | --- | --- | --- | --- | --- | --- | --- | --- | --- | --- | --- | --- |
| DGISTPKLKEDYQIG | 0.1 | 0.4 | – | – | – | – | – | – | – | – | – | – | – | – | – | – | – | – | – | – | Binding of Control Serum Blood-Bank to Looped peptides [2]: 0.3; Binding of Control serum Blood-bank to linear peptides [2]: 0.5; Binding of Control serum LUMC to linear peptides [2]: 0.6; Binding of Control serum LUMC to looped peptides [2]: 0.3 |
| DNGTITVEELKQLLE | – | – | recognized | – | – | – | – | – | – | – | – | – | – | – | – | – | – | – | – | – | Binding of Control Serum Blood-Bank to Looped peptides of the protein M of SARS-CoV Urbani [2]: 0.4; Binding of Control serum Blood-bank to linear peptides of the protein M of SARS-CoV Urbani [2]: 0.7; Binding of Control serum LUMC to linear peptides of the protein M of SARS-CoV Urbani [2]: 0.8; Binding of Control serum LUMC to looped peptides of the protein M of SARS-CoV Urbani [2]: 0.7 |
| DNKFALTCTSTHFAF | – | – | – | – | – | – | – | – | – | – | – | – | – | – | – | – | – | – | – | – | Rabbit serum linear peptides [1]: 0.7; Rabbit serum looped peptides [1]: 0.6; Binding of Control Serum Blood-Bank to Looped peptides [2]: 0.6; Binding of Control serum Blood-bank to linear peptides [2]: 0.7; Binding of Control serum LUMC to linear peptides [2]: 0.6; Binding of Control serum LUMC to looped peptides [2]: 0.8 |
| TKIIALNKRWQLALY | – | – | recognized | 0.7 | 0.6 | 0.5 | 0.4 | 0.6 | 0.5 | 1.0 | 0.5 | 0.7 | 0.6 | 0.7 | 0.6 | 0.3 | 0.3 | 0.2 | 0.3 | 0.5 | Binding of serum SARS-yellow to looped/cyclic peptide (PEPSCAN-ELISA) [3]: 0.5 |
| TTVYHITVSQIQLSL | 0.7 | 0.4 | – | – | – | – | – | – | – | – | – | – | – | – | – | – | – | – | – | – | Binding of serum 1a to linear peptides of protein X2 [3]: 0.7; Binding of serum 1a to looped/cyclic peptides of protein X2 of SARS-CoV Urbani [3]: 0.5; Binding of serum 1b to linear peptides of protein X2 [3]: 0.5; Binding of serum 1b to looped/cyclic peptides of protein X2 of SARS-CoV Urbani [3]: 0.5; Binding of serum 2 to linear peptides of protein X2 [3]: 0.5; Binding of serum 2 to looped/cyclic peptides of protein X2 of SARS-CoV Urbani [3]: 0.3; Binding of serum 6 to linear peptides of protein X2 [3]: 0.5; Binding of serum 6 to looped/cyclic peptides of protein X2 of SARS-CoV Urbani [3]: 0.3; Binding of serum 37 to linear peptides of protein X2 [3]: 0.7; Binding of serum 37 to looped/cyclic peptides of protein X2 of SARS-CoV Urbani [3]: 0.4; Binding of serum 62 to linear peptides of protein X2 [3]: 0.6; Binding of serum 62 to looped/cyclic peptides of protein X2 of SARS-CoV Urbani [3]: 0.5; Binding of serum London to linear peptides of protein X2 [3]: 0.4; Binding of serum London to looped/cyclic peptides of protein X2 of SARS-CoV Urbani [3]: 0.2; Binding of serum SARS-green to linear peptides of protein X2 [3]: 0.1; Binding of serum SARS-green to looped/cyclic peptides of protein X2 of SARS-CoV Urbani [3]: 0.2; Binding of serum SARS-yellow to linear peptides of protein X2 [3]: 0.8; Binding of serum SARS-yellow to looped/cyclic peptides of protein X2 of SARS-CoV Urbani [3]: 0.4 |
| VFQSATKIIALNKRW | – | – | recognized | 0.8 | 0.5 | 0.6 | 0.4 | 0.6 | 0.4 | 0.6 | 0.6 | 0.7 | 0.4 | 0.8 | 0.6 | 0.3 | 0.3 | 0.2 | 0.2 | 0.5 | Binding of serum SARS-yellow to looped/cyclic peptide (PEPSCAN-ELISA) [3]: 0.2 |
| WQLALYKGFQFICNL | 0.5 | 0.6 | – | 0.6 | 0.6 | 0.2 | 0.3 | 0.4 | 0.4 | 0.5 | 1.3 | 0.3 | 0.5 | 0.4 | 0.5 | 0.2 | 1.5 | 0.3 | 0.3 | 0.4 | Binding of serum SARS-yellow to looped/cyclic peptide (PEPSCAN-ELISA) [3]: 0.5 |
